Among the data in ChEMBL document CHEMBL1135603, “Modeling of binding modes and inhibition mechanism of some natural ligands of farnesyl transferase using molecular docking” (J Med Chem, 2002) are IC50 and logP values, retold here.

The target of data set [1] is Protein farnesyltransferase (Rattus norvegicus, UniProt Q02293+Q04631). Nature of the data set: Inhibition of Farnesyltransferase. It counts as protein-complex assay.
Data set [2] in a line: Partition coefficient (logP). It counts as physicochemical. The note with it: octanol/water.

Structures are written as SMILES.

`CC(C)CCCC(C)C1CCC2C3C(CC[C@]12C)[C@@](C)(CCC(=O)O)C(=O)C[C@@H]3C` (some centres not stated): the midpoint of inhibition in data set [1], the IC50, lay at 900 nM.

As for `CC(C)CCCC(C)C1CCC2C3CCC(=O)[C@](C)(C[C@@H](CC(=O)O)C(=O)O)C3CC[C@]12C` (some centres not stated), in data set [1], the IC50 was 190 nM.

On to `CC(=O)O[C@H]1CC[C@]2(C=O)[C@H](CC[C@@]3(C)[C@H]2C=C(C)[C@@]2(C)C(O)=C(C)C(=O)[C@]23C(=O)O)C1(C)C` [ANDRASTATIN A], for which the logP in data set [2] worked out at 1.7. In data set [1], this compound had an IC50 of 24900 nM.

Take `CC(=O)O[C@H]1CC[C@]2(CO)[C@H](CC[C@@]3(C)[C@H]2C=C(C)[C@@]2(C)C(O)=C(C)C(=O)[C@]23C(=O)O)C1(C)C` [ANDRASTATIN B]: the logP in data set [2] was 1.6. The half-maximal inhibitory concentration (IC50) in data set [1] was found to be 47100 nM.

Consider `CC(=O)O[C@H]1CC[C@]2(C)[C@H](CC[C@@]3(C)[C@H]2C=C(C)[C@@]2(C)C(O)=C(C)C(=O)[C@]23C(=O)O)C1(C)C` [ANDRASTATIN C], for which, in data set [2], the logP turned out to be 2.7. Besides, in data set [1], the IC50 came out at 13300 nM.

In data set [2], `C=C1C(=O)O[C@@H]2[C@H]3C[C@@]4(C)C=CC3(CC43C(=O)O[C@@H]4C5C(C)=CC(=O)C5=C(C)C[C@H](CC(=O)CC(C)C)C43)[C@](C)(O)CC[C@@H]12` (some centres not stated) [ARTEMINOLIDE] yielded a logP of 1.8. This compound gave an IC50 in data set [1] of 360 nM.

`COC(=O)C1=CC(CO)=COc2oc3cccc(O)c3c(=O)c21` [FUSIDIENOL] gave a logP in data set [2] of 1.8. The compound also showed an IC50 in data set [1] of 300 nM.

In turn, `CC(C)=CCC/C(C)=C/CC/C(C)=C/CC/C(=C\C(=O)O)C(=O)O` [SCHIZOSTATIN E] had a logP in data set [2] of 1.3.

In data set [2], `CC(C)=CCC/C(C)=C/CC/C(C)=C/CC/C(=C/C(=O)O)C(=O)O` [SCHIZOSTATIN Z] came in with a logP of 1.4. The compound further gave an IC50 in data set [1] of 300000 nM.

In turn, `C=C(CC[C@]12O[C@H](C(=O)O)[C@@](O)(C(=O)O)[C@](C(=O)O)(O1)[C@H](OC(=O)/C=C/[C@@H](C)C[C@@H](C)CC)[C@H]2O)[C@@H](OC(C)=O)[C@H](C)Cc1ccccc1` [ZARAGOZIC ACIDS A] returned a logP in data set [2] of 2. Half-maximal inhibition in data set [1] (IC50) was put at 12 nM.

The term IC50 denotes the concentration at which inhibition is half-maximal. What is called logP is a log measure of how a compound divides between an organic and an aqueous phase.
